“Also recorded” adds a separate entry of the source.
Experiments:
Type in all cases: in vivo, human
[1] = system: FXR activation; experiment: Phase 1 study: pharmacodynamic markers of FXR activation (C4, bile acids, FGF-19); conditions: Day 85 compared to baseline
Description: (§1) The secondary objectives of this study are to evaluate the pharmacodynamics of OCA on FXR activation and to evaluate liver chemistries and the pharmacodynamics of OCA on biomarkers of NASH, including inflammation, apoptosis, and oxidation stress.
Furthermore, plasma bile acids were suppressed by administration of OCA, but no dose response was observed.

[2] = system: subjects with nonalcoholic steatohepatitis with fibrosis; experiment: Phase 1 study: liver chemistries (ALT, AST, GGT, bilirubin, ALP); conditions: Day 85 compared to baseline
Description: as §1

[3] = Phase 1 study: plasma pharmacokinetics of total OCA; conditions: 10 mg QD or 25 mg QD
Description: (§2) The primary objectives of this study are to evaluate the safety and tolerability of OCA treatment in subjects with NASH with fibrosis and to evaluate single- and multiple-dose pharmacokinetics of OCA, its conjugates, and metabolites in subjects with NASH with fibrosis.
Furthermore, although there were a limited number of subjects having a fibrosis score of F4, plasma exposure was lower in these subjects as compared to the subjects with a fibrosis score of F1 or F2/F3.

[4] = system: liver function of NASH subjects; experiment: HepQuant-SHUNT test: disease severity index (DSI) score
Description: The HepQuant®-SHUNT test uses simultaneous orally administered d4-cholate and intravenously administered 13C-cholate (i.e. intravenous (24-^13C cholate) and oral (2,2,4,4-^2H cholate) together with mass spectrometry analysis of five serum samples from the subject to accurately measure liver function and generate a disease severity index (DSI) score. HepQuant®-STAT is a simpler test that uses only orally administered d4-cholate and a single serum sample from the subject to estimate liver function (STAT).
Briefly, the HepQuant®-SHUNT test allows for simultaneous measurement of the perfusion/uptake from portal circulation and perfusion/uptake from systemic circulation, as shown in FIGS. 1 and 2. In a HepQuant®-SHUNT test, a subject is orally administered 40 mg of d4-cholate and intravenously administered 20 mg of 13C-cholate. Blood samples are then isolated from the subject at 5, 20, 45, 60 and 90 minutes after cholate administration. For each sample, mass spectrometry is used to determine the Portal Hepatic Filtration Rate (Portal HFR) and Systemic Hepatic Filtration Rate (Systemic HFR). The Portal HFR is defined as the clearance of 4D-cholate (dose AUC^−1 kg body weight^−1, typically mL mini kg^−1) and the Systemic HFR is defined as the clearance of 13C-cholate (dose AUC^−1 kg body weight^−1, typically mL min^−1 kg^−1). The Portal HFR and Systemic HFR can then be used to calculate a Disease Severity Index (DSI) score. The DSI can be used to determine the extent of liver function, and therefore the extent of liver damage/disease in the subject. Thus, the DSI score can be used to diagnose a subject with a disease. For example, a DSI greater than 16.5 can indicate that the subject will likely have biopsy-proven NASH. A DSI score can also be used to determine the percent likelihood of endoscopic finding of varices in subjects with NASH or hepatitis C virus infection, as shown in FIG. 3. DSI scores can also be measured multiple times during a course of treatment described herein (a treatment regimen) to determine the efficacy of the course of treatment. For example, a baseline DSI score can be measured by performing a HepQuant®-SHUNT test prior to the start of the treatment regimen (i.e. prior to the first administration of the treatment regimen) and then a second DSI score can be measured at a time point during the treatment regimen. The first and second DSI scores can compared to determine a DSI difference score. For example, a reduction in DSI score from the baseline measurement can indicate that the course of treatment is beneficial as the subject's liver function is improving. Depending on the DSI difference score, the treatment regimen can be adjusted, continued or discontinued.
In some aspects, a DSI difference score that is greater than or equal to 2 (i.e. a decrease in the DSI scores of 2 or more over the course of treatment) is considered to be clinically meaningful, based on reducing the probability of any varices from approximately 30% to 20% for subjects with a baseline DSI of 20.
As part of the HepQuant®-SHUNT test, labeled cholate was administered intravenously and orally. The HepQuant®-SHUNT tests were used to determine disease severity index (DSI) scores.

[5] = Phase 1 study: liver exposure of OCA and its conjugates
[6] = system: subjects with nonalcoholic steatohepatitis with fibrosis; experiment: Phase 1 placebo-controlled study: safety and tolerability (TEAE incidence); conditions: for Total Number of TEAEs: 85 days; for Total Number of TEAEs / Any Serious TEAE / Constipation (TEAE incidence) / Diabetes mellitus (TEAE) / Fatigue (TEAE incidence) / Headache (TEAE incidence) / Hepatobiliary disorders (SOC) (TEAE) / Hypercholesterolemia (TEAE) / LDL Increased, Mild (maximum severity) / LDL Increased, Moderate (maximum severity) / LDL Increased, Severe (maximum severity) / Low density lipoprotein increased (TEAE incidence) / Nausea (TEAE incidence) / Pneumonia (TEAE incidence) / Pruritis (TEAE incidence) / Pruritus, Mild (maximum severity) / Pruritus, Moderate (maximum severity) / Pruritus, Severe (maximum severity) / Subjects with at least one TEAE: n = 20
Description: Example 1: A Phase 1, Double-Blind, Randomized, Placebo-Controlled Study to Evaluate Safety, Pharmacokinetics, and Pharmacodynamics of Obeticholic Acid in Subjects with Nonalcoholic Steatohepatitis with Fibrosis
as §2
The study comprised three treatment groups-10 mg QD, 25 mg QD and Placebo QD.

## CC[C@H]1[C@@H](O)[C@@H]2[C@H](CC[C@]3(C)[C@@H]([C@H](C)CCC(=O)O)CC[C@@H]23)[C@@]2(C)CC[C@@H](O)C[C@@H]12 [OCA, 3α,7α-dihydroxy-6α-ethyl-5β-cholan-24-oic acid]
[1]
  FGF-19 levels, percent change from baseline: increased with OCA dose
[1]; no dose response
  C4 levels, percent change from baseline: suppressed
  plasma bile acids, percent change from baseline: suppressed
[2]
  ALP levels, change from baseline: dose dependent increase
[2]; no dose-dependent response
  biochemistry markers of hepatic cytotoxicity and dysfunction (ALT, AST, GGT, total bilirubin, direct bilirubin): suppressed
[3]; day 1 and day 85
  plasma exposure of OCA, NASH subjects vs healthy subjects: modestly higher in NASH subjects
[3]; limited number of F4 subjects
  plasma exposure in F4 subjects compared to F1 or F2/F3: lower
[4]; 10 mg QD or 25 mg QD, Day 85, greater response at 25 mg QD
  reduction in DSI: dose-dependent and clinically meaningful reduction; also recorded: dose-dependent response
[4]; F1, F2/F3 or F4, 10 mg QD or 25 mg QD, Day 85
  subjects treated with OCA among the 18 subjects with clinically relevant ΔDSI of at least −2: 17 subjects
[4]; F1, OCA 10 mg QD, Day 85, n = 3
  Responders (≥2 point decrease in DSI), %: (67) %
[4]; F1, OCA 25 mg QD, Day 85, n = 5
  Responders (≥2 point decrease in DSI), %: (20) %
[4]; F2/F3 NASH subjects, greatest effect at 25 mg QD
  change in DSI score (Day 85−Baseline) vs placebo: greater improvement in DSI score
[4]; F4, OCA 10 mg QD, Day 85, n = 2
  Responders (≥2 point decrease in DSI), %: (50) %
[4]; F4, OCA 25 mg QD, Day 85, n = 1
  Responders (≥2 point decrease in DSI), %: (100) %
[5]; 10 mg QD, F1 or F2/F3
  liver exposure of OCA across fibrosis scores: generally similar across subjects with different fibrosis scores
[5]; 25 mg QD, F1, F2/F3 or F4
  liver exposure of OCA across fibrosis scores: generally similar across subjects with different fibrosis scores
[5]; F1, F2/F3 or F4
  liver exposure of OCA across fibrosis scores after normalization by dose: generally similar across subjects with different fibrosis scores
[6]; 10 mg QD and 25 mg QD for 12 weeks
  TEAEs leading to study discontinuation: no TEAEs leading to study discontinuation
[6]; 10 mg QD and 25 mg QD for 12 weeks, NASH subjects with fibrosis
  safety and tolerability: generally safe and well tolerated
[6]; OCA 10 mg QD
  Total Number of TEAEs: 29
  Any Serious TEAE: 0 n (%)
  Constipation (TEAE incidence): 2 (10%) n (%)
  Diabetes mellitus (TEAE): 1 (5%) n (%)
  Fatigue (TEAE incidence): 2 (10%) n (%)
  Headache (TEAE incidence): 0 n (%)
  Hepatobiliary disorders (SOC) (TEAE): 0 n (%)
  Hypercholesterolemia (TEAE): 0 n (%)
  LDL Increased, Mild (maximum severity): 2 (10%) n (%)
  LDL Increased, Moderate (maximum severity): 0 n (%)
  LDL Increased, Severe (maximum severity): 0 n (%)
  Low density lipoprotein increased (TEAE incidence): 2 (10%) n (%)
  Nausea (TEAE incidence): 0 n (%)
  Pneumonia (TEAE incidence): 0 n (%)
  Pruritis (TEAE incidence): 3 (15%) n (%)
  Pruritus, Mild (maximum severity): 3 (15%) n (%)
  Pruritus, Moderate (maximum severity): 0 n (%)
  Pruritus, Severe (maximum severity): 0 n (%)
  Subjects with at least one TEAE: 12 (60%) n (%)
[6]; OCA 25 mg QD
  Total Number of TEAEs: 36
  Any Serious TEAE: 0 n (%)
  Constipation (TEAE incidence): 2 (10%) n (%)
  Diabetes mellitus (TEAE): 0 n (%)
  Fatigue (TEAE incidence): 3 (15%) n (%)
  Headache (TEAE incidence): 0 n (%)
  Hepatobiliary disorders (SOC) (TEAE): 0 n (%)
  Hypercholesterolemia (TEAE): 1 (5%) n (%)
  LDL Increased, Mild (maximum severity): 1 (5%) n (%)
  LDL Increased, Moderate (maximum severity): 1 (5%) n (%)
  LDL Increased, Severe (maximum severity): 0 n (%)
  Low density lipoprotein increased (TEAE incidence): 2 (10%) n (%)
  Nausea (TEAE incidence): 0 n (%)
  Pneumonia (TEAE incidence): 2 (10%) n (%)
  Pruritis (TEAE incidence): 5 (25%) n (%)
  Pruritus, Mild (maximum severity): 2 (10%) n (%)
  Pruritus, Moderate (maximum severity): 3 (15%) n (%)
  Pruritus, Severe (maximum severity): 0 n (%)
  Subjects with at least one TEAE: 15 (75%) n (%)
[6]; OCA treatment groups (10 mg QD, 25 mg QD)
  LDL cholesterol: increase in LDL cholesterol
